Source: PMC3983353 (Journal of Medicinal Chemistry, 2014)

Experiments:
[1] = biological target: rat nNOS (Rattus norvegicus, UniProt P29476)
[2] = tested on: metastatic melanoma A375 cell line; conditions: read-out: EC50 in A375 cells; cited from earlier work
[3] = tested on: Sk-Mel28 cells; conditions: read-out: EC50 in Sk-Mel28 cells; cited from earlier work
[4] = tested on: immortalized melanocytes; conditions: cannot calculate = toxic even at lower concentration and no dose–activity curve occurred

Sequence of rat nNOS (P29476 whole entry): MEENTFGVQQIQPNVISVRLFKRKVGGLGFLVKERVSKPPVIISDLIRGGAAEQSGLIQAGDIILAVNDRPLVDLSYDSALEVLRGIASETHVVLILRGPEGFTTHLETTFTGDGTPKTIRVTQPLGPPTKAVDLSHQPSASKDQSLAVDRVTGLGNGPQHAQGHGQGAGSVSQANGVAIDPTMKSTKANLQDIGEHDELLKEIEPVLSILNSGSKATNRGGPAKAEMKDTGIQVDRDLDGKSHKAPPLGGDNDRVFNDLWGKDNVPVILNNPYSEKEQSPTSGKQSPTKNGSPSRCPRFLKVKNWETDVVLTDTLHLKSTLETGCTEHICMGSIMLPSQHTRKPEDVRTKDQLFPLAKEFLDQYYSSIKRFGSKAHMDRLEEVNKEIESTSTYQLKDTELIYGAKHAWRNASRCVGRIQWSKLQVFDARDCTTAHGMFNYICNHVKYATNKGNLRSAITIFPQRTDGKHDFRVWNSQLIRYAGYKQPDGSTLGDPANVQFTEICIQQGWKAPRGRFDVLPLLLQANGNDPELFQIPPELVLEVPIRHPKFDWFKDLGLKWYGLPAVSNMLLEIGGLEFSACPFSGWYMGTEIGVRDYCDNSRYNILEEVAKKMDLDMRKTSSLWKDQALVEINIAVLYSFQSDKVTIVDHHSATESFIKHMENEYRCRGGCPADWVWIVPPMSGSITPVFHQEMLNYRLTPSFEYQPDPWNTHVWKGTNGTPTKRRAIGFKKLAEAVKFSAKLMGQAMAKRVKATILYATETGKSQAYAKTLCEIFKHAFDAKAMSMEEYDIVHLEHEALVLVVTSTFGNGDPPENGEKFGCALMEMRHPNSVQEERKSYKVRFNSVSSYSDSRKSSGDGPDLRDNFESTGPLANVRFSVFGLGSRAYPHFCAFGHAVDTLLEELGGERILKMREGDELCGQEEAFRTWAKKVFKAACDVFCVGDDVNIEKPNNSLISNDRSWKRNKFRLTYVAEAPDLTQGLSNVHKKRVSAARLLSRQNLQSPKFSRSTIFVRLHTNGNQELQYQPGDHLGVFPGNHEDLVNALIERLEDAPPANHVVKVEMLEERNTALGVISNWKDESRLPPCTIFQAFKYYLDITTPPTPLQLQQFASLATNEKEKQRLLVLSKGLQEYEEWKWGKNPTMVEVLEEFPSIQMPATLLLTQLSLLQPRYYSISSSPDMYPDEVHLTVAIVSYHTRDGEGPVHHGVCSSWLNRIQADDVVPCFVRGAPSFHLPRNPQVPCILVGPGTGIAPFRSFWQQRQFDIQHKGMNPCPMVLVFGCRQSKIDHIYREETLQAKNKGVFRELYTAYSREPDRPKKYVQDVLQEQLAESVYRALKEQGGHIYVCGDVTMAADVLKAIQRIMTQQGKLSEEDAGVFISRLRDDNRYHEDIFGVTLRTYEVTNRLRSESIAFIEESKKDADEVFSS

N=C(Nc1cccc(OCCCOc2cccc(NC(=N)c3cccs3)c2)c1)c1cccs1 [compound 12, N,N′-((Propane-1,3-diylbis(oxy))bis(3,1-phenylene))bis(thiophene-2-carboximidamide)]
lower nNOS potency than 11 [1]: 2 fold

CCN(CCc1cccc(F)c1)Cc1cccc(NC(=N)c2cccs2)c1 [compound 17, N-(3-((Ethyl(3-fluorophenethyl)amino)methyl)phenyl)thiophene-2-carboximidamide]
lower nNOS potency than 16 [1]: ~7 fold

N.N.[Cl][Pt][Cl] [cisplatin]
EC50 [2]: 4.2 µM
EC50 [3]: 14.3 µM

N=C(Nc1cccc(CCNCc2cccc(NC(=N)c3cccs3)c2)c1)c1cccs1 [compound 13, N-(3-(2-((3-(Thiophene-2-carboximidamido)benzyl)amino)ethyl)phenyl)thiophene-2-carboximidamide]
EC50 immortalized melanocytes [4]: cannot calculate ^b
